Measured values published in patent publication US20240226228A1, “ANTIMICROBIAL PEPTOID HAVING IMPROVED SELECTIVITY AND ANTIMICROBIAL COMPOSITION COMPRISING SAME” (priority 2021, published 2024).
Converted amounts (≈) assume the structure as drawn. Read-outs that look alike come from different tables or passages of the source. Where a SMILES comes first, the peptide text is derived from it. [ ]: non-standard residue; d: D form. Gly(N(CH2)2(3-indolyl)) = O=C(O)CNCCc1c[nH]c2ccccc12; Nspe = C[C@H](NCC(=O)O)c1ccccc1; Nlys = NCCCCNCC(=O)O

Key:
red blood cells = experiment: Hemolysis assay; type: cell-based, Sprague-Dawley mouse
How it was run: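 Peptoid is mixed with 10% (v/v) PBS-washed erythrocytes (male Sprague-Dawley […], 13 weeks) and held 1 h at 37 °C. Hemolysis is calculated from 540 nm absorbance of the supernatant, with PBS as 0% and Triton X-100 as 100%.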

[1] = test system: Enterococcus Faecium KCTC 13225; experiment: MIC in multidrug-resistant bacteria, modified microdilution method; type: cell-based; details: Table 14
Procedure: (§1) The MIC of the prepared peptoid in multidrug-resistant bacteria was measured using a modified microdilution method in a Difco Mueller Hinton medium, and a test was performed on a bacterial pathogen panel with resistant and tolerance to general antibiotics.
(§2) Briefly, a medium containing bovine serum albumin and 0.001% acetic acid was used to continuously dilute a peptoid concentrate 10-times stronger than the final concentration. 10 uμL of the 10-time stronger peptoid concentrate and 90 μL of a Muleller Hinton medium were added to each well of a 96-well plate. Bacteria were added to the plate until the final concentration reached 2×10^5 CFU/mL and then incubated at […] overnight. MIC was defined as a concentration at which bacterial growth is not observed.

[2] = test system: Enterobacter SP KCTC 2625; experiment: as above; type: cell-based; details: Table 14
Procedure: as §1, §2

P. aeruginosa KCTC 1637 = experiment: as above; type: cell-based; details: Table 14
Procedure: as §1, §2

E. coli KCTC 2411 = experiment: as above; type: cell-based; details: Table 14
Procedure: as §1, §2

[3] = test system: Enterococcus faecalis KCTC 3511; experiment: as above; type: cell-based; details: Table 14
Procedure: as §1, §2

in vitro = experiment: in vitro
Procedure: (§3) Human lung cells (MRC-5) were purchased from the Korean Cell Line Bank, and human keratinocytes (HaCaT) were purchased from the AmorePacific R&D Center. All cells were grown in a Dulbecco's modified Eagle's medium containing 10% fetal bovine serum under conditions of 5% CO2 and 37° C. To confirm the effect of a peptoid on cell growth, 3-(4,5-dimethylthiazol-2-yl)-5-(3-carboxymethoxyphenyl)-2-(4-sulfophenyl)-2H-tetrazolium (MTS) cell assay was performed to determine cell viability. An aliquot (100 μL) of a batch including 1.3×10^4 MRC-5 cells/mL or 3×10^4 HaCaT cells/mL was dispensed into each well of a 96-well plate. The cells were grown at 37° C. in a 5% CO2 humid atmosphere and allowed to adhere for 24 hours. When the cells reached approximately 70% confluency, the medium was replaced with serial dilutions of the peptoid stock and incubated for 24 hours. 20 μL of a CellTiter 96 aqueous non-radioactive cell proliferation assay reagent (Promega, USA) including a tetrazolium compound was added to each well.
(§4) The contents in the plate were metabolized by incubating at 37° C. for 4 hours. An MTS-formazan product of viable cells was measured at 490 nm using a microplate reader, and cell viability (%) was calculated by Equation 2 below and compared with untreated cells.
(§5) Cell viability (%)=[A/(Acontrol)]×100 [Equation 2]
(§6) In Equation 2, A is the absorbance of a test well, and Acontrol is the average absorbance of a well containing untreated cells.
(§7) The term “nd” shown in Table 19 below is the abbreviation for not determined, and indicates a value that is too small or too large to be measured.

[4] = HPLC to confirm peptoid decomposition after counter ion substitution; type: physicochemical; details: HPLC at 220 nm; HCl and AcOH
Procedure: FIGS. 76 to 83 are the HPLC results for Peptoids 1, 10, 11, 14, 15, 29, 32 and 37 of the present inventive concept to confirm the decomposition of the peptoids after counter ion substitution using (a) HCl and (b) AcOH.
Referring to FIGS. […], HPLC was performed for Peptoids 1, 10, 11, 14, 15, 29, 32 and 37 of the present inventive concept. Since the chloride (HCl) is a stronger acid than TFA, it can decompose acid-vulnerable peptoid compounds.

E. coli ATCC25922 = test system: E. coli ATCC25922
How it was run: (§8)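 Cation-adjusted MHB2 cultures (18 h, subcultured 4 h) adjusted to 2×10^5–5×10^5 CFU/mL in medium with 0.02% BSA and 0.001% acetic acid.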

S. aureus ATCC 25923 = test system: S. aureus ATCC 25923
How it was run: as §8

Human lung cells (MRC-5) = experiment: in vitro
Procedure: as §3, §4, §5, §6, §7

[5] = test system: human keratinocytes (HaCaT); experiment: in vitro
Procedure: as §3, §4, §5, §6, §7

[6] = Table 18, TFA salt vs counter ion-substituted peptoids
[7] = Tables 11-13, concentration that induces hemolysis in 10% red blood cells
[8] = Tables 11-13, concentration that induces hemolysis in 50% red blood cells
[9] = Table 18, TFA salt vs counter ion-substituted (HCl, AcOH) peptoids
[10] = Tables 11-13, 24 hours at 37° C., maximum concentration 25 μM

SMILES	HC10 (red blood cells; [7]) [µM]	HC50 (red blood cells; [8]) [µM]	MIC Enterococcus Faecium KCTC 13225 [1] [µM]	MIC Enterobacter SP KCTC 2625 [2] [µM]	MIC P. aeruginosa KCTC 1637 (P. aeruginosa KCTC 1637) [µM]	MIC E. coli KCTC 2411 (E. coli KCTC 2411) [µM]	MIC Enterococcus faecalis KCTC 3511 [3] [µM]	peptoid decomposition after counter ion substitution (in words) [4]	MIC E. coli ATCC25922 (E. coli ATCC25922; [9]) [µM]	MIC E. coli ATCC25922 (E. coli ATCC25922; [10]) [µM]	MIC S. aureus ATCC 25923 (S. aureus ATCC 25923; [9]) [µM]	MIC S. aureus ATCC 25923 (S. aureus ATCC 25923; [10]) [µM]	CC50 at 24 h (in vitro; human, LC50 MRC-5) [µM]	CC50 at 24 h (in vitro; human, LC50 HaCaT) [µM]	lower toxicity against MRC-5 cells compared to the peptoid having a TFA salt (Human lung cells (MRC-5)) [%]	lower toxicity against HaCaT cells compared to the peptoid having a TFA salt [5] [%]	further results
C[C@@H](c1ccccc1)N(CC(N)=O)C(=O)CN(C(=O)CN(CCCCN)C(=O)CN(C(=O)CN(C(=O)CN(CCCCN)C(=O)CN(C(=O)CN(C(=O)CN(CCCCN)C(=O)CN(C(=O)CN(C(=O)CNCCCCN)[C@@H](C)c1ccccc1)[C@@H](C)c1ccccc1)[C@@H](C)c1ccccc1)[C@@H](C)c1ccccc1)[C@@H](C)c1ccccc1)[C@@H](C)c1ccccc1)[C@@H](C)c1ccccc1 [Peptoid 1, H-NLys-Nspe-Nspe-NLys-Nspe-Nspe-NLys-Nspe-Nspe-NLys-Nspe-Nspe-NH2, reference compound] (H-[Nlys][Nspe][Nspe][Nlys][Nspe][Nspe][Nlys][Nspe][Nspe][Nlys][Nspe][Nspe]-NH2)	8.3	22.9	< 0.8	6.3 (≈ 11.5 µg/mL)	25 (≈ 45.5 µg/mL)	6.3 (≈ 11.5 µg/mL)	0.8 (≈ 1.46 µg/mL)	almost no peptoid decomposition occurred	6.3	6.3 (≈ 11.5 µg/mL)	1.6	1.6 (≈ 2.91 µg/mL)	–	–	–	–	HC10 (red blood cells; [6]): 15.9 µM; HC50 (red blood cells; [6]): 49.0 µM; Hmax (100 μM) (red blood cells; [6]): 72.1 ± 2.1%; Hmax (100 μM) (red blood cells; Tables 11-13, hemolysis rate at maximum peptoid concentration): 112.3 ± 0.7%; HD10 (red blood cells; first value of HD10/HD50 cell, hemolysis, in µM): 22.9; Hmax (100 μM) (red blood cells; hemolysis at 100 μM): 75.8; HD50 (red blood cells; second value of HD10/HD50 cell, hemolysis, in µM): 79.0; CC50 at 24 h (in vitro): 7.3 µM; CC50 at 24 h (in vitro; LC50 MRC-5, 24 hours incubation, concentration that causes 50% cell lethality): 8.1 µM; MIC E. coli ATCC25922 (E. coli ATCC25922; gram-negative bacteria, E. coli ATCC25922 strain): 3.1 µM (≈ 5.64 µg/mL); MIC S. aureus ATCC 25923 (S. aureus ATCC 25923; gram-positive bacteria, S. aureus ATCC25923 strain): 1.6 µM (≈ 2.91 µg/mL)
C[C@@H](c1ccccc1)N(CC(N)=O)C(=O)CN(C(=O)CN(CCCCN)C(=O)CN(C(=O)CN(C(=O)CN(CCCCN)C(=O)CN(C(=O)CN(C(=O)CN(CCCCN)C(=O)CN(CCc1c[nH]c2ccccc12)C(=O)CN(CCc1c[nH]c2ccccc12)C(=O)CNCCCCN)[C@@H](C)c1ccccc1)[C@@H](C)c1ccccc1)[C@@H](C)c1ccccc1)[C@@H](C)c1ccccc1)[C@@H](C)c1ccccc1 [Peptoid 14, H-NLys-NhTrp-NhTrp-NLys-Nspe-Nspe-NLys-Nspe-Nspe-NLys-Nspe-Nspe-NH2]	23.6	43.4	< 0.8	3.1 (≈ 5.88 µg/mL)	–	6.3 (≈ 12 µg/mL)	1.6 (≈ 3.04 µg/mL)	almost no peptoid decomposition occurred	3.1	3.1 (≈ 5.88 µg/mL)	1.6	<0.8	9.7	–	–	–	HC10 (red blood cells): 12.5 µM; HC50 (red blood cells): 21.1 µM
C[C@@H](c1ccccc1)N(CC(=O)N(CCCCN)CC(=O)N(CCc1c[nH]c2ccccc12)CC(=O)N(CCc1c[nH]c2ccccc12)CC(N)=O)C(=O)CN(CCCCN)C(=O)CN(CCCCN)C(=O)CN(C(=O)CN(C(=O)CN(CCCCN)C(=O)CN(C(=O)CN(C(=O)CNCCCCN)[C@@H](C)c1ccccc1)[C@@H](C)c1ccccc1)[C@@H](C)c1ccccc1)[C@@H](C)c1ccccc1 [Peptoid 29, H-NLys-Nspe-Nspe-NLys-Nspe-Nspe-NLys-NLys-Nspe-NLys-NhTrp-NhTrp-NH2] (H-[Nlys][Nspe][Nspe][Nlys][Nspe][Nspe][Nlys][Nlys][Nspe][Nlys][Gly(N(CH2)2(3-indolyl))][Gly(N(CH2)2(3-indolyl))]-NH2)	–	–	1.6 (≈ 2.98 µg/mL)	3.1 (≈ 5.78 µg/mL)	50 (≈ 93.2 µg/mL)	6.3 (≈ 11.7 µg/mL)	3.1 (≈ 5.78 µg/mL)	almost no peptoid decomposition occurred	6.3	6.3 (≈ 11.7 µg/mL)	12.5	6.3 (≈ 11.7 µg/mL)	–	18.8	20	20	–
C[C@@H](c1ccccc1)N(CC(N)=O)C(=O)CN(CCCCN)C(=O)CN(CCCCN)C(=O)CN(C(=O)CN(C(=O)CN(CCCCN)C(=O)CN(C(=O)CN(C(=O)CN(CCCCN)C(=O)CN(CCc1c[nH]c2ccccc12)C(=O)CN(CCc1c[nH]c2ccccc12)C(=O)CNCCCCN)[C@@H](C)c1ccccc1)[C@@H](C)c1ccccc1)[C@@H](C)c1ccccc1)[C@@H](C)c1ccccc1 [Peptoid 32, H-NLys-NhTrp-NhTrp-NLys-Nspe-Nspe-NLys-Nspe-Nspe-NLys-NLys-Nspe-NH2]	–	–	3.1 (≈ 5.78 µg/mL)	3.1 (≈ 5.78 µg/mL)	25 (≈ 46.6 µg/mL)	6.3 (≈ 11.7 µg/mL)	6.3 (≈ 11.7 µg/mL)	almost no peptoid decomposition occurred	6.3	6.3 (≈ 11.7 µg/mL)	–	3.1 (≈ 5.78 µg/mL)	14.5	17.1	20	20	MIC S. aureus ATCC 25923 (S. aureus ATCC 25923; ATCC 25923): 3.1 µM (≈ 5.78 µg/mL)
